Our source for the IC50 values is US11987542B2, “Co-crystal of sorafenib derivatives and process for preparation thereof” (EicOsis, LLC, priority 2018, dated 2024).

Broadly, the IC50 is the concentration that inhibits the measured activity by half.

Molecules are shown by their SMILES.

Type in all cases: biochemical
The target in one test is T1, Pig sEH (Sus scrofa, UniProt Q6Q2C2).
T1 construct: from tissue
T1 sequence (Q6Q2C2 1-555): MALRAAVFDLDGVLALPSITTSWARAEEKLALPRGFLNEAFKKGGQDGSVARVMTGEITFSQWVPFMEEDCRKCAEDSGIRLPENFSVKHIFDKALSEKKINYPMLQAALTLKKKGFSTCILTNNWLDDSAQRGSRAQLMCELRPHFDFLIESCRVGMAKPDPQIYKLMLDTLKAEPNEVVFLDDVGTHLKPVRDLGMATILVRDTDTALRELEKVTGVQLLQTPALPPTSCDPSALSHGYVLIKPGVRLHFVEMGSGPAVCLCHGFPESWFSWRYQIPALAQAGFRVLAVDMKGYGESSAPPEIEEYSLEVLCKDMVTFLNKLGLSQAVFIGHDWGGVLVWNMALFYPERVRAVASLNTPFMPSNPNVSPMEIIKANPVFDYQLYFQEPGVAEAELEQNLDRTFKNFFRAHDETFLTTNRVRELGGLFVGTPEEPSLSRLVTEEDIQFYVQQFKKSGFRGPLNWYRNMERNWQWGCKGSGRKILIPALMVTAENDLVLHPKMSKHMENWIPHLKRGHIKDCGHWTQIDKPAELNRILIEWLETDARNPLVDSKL
In words: sEH inhibition, radioactive assay and liver cytosolic preparation.

In another test the target is T2, Sheep sEH (Ovis aries, UniProt A0ACI6PZ20).
T2 sequence (A0ACI6PZ20 1-549): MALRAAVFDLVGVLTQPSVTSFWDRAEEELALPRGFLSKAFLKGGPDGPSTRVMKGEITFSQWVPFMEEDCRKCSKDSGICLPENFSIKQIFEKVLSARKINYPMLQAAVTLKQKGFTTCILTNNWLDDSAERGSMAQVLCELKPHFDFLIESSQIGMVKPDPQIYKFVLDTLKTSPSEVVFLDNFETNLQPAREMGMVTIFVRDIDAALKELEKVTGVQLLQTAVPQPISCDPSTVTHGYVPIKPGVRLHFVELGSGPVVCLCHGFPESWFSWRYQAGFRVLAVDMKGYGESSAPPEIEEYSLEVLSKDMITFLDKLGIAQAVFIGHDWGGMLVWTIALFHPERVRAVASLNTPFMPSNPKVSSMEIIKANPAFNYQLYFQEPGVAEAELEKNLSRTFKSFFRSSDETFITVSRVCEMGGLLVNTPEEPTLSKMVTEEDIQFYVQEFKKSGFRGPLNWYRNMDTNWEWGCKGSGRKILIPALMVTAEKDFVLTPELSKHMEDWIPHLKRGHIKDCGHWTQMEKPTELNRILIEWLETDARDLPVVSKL
Described as above.

Another test addresses T3, Rat sEH (Rattus norvegicus, UniProt P80299).
T3 sequence (P80299 1-554): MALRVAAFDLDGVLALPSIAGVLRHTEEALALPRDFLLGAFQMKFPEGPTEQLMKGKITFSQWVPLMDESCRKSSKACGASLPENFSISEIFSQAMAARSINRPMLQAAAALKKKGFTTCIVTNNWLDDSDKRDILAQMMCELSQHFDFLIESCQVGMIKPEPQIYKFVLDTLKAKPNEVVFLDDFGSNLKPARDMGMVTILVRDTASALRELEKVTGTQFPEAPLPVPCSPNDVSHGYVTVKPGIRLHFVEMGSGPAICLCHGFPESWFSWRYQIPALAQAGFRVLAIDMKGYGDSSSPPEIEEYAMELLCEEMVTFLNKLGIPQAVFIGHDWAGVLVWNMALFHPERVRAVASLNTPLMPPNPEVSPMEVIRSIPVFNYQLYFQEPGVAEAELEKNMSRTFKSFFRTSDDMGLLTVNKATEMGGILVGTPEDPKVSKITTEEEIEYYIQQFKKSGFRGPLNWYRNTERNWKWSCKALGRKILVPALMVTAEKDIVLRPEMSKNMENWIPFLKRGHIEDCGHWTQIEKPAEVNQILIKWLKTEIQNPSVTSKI
As to the kind of experiment: sEH inhibition, fluorescent assay.

Turning to `O=C(Nc1ccc(OC(F)(F)F)cc1)N[C@H]1CC[C@H](Oc2ccc(C(=O)O)cc2)CC1` [EC1728, trans-4-{4-[3-(4-trifluoromethoxy-phenyl)-ureido]-cyclohexyloxy}-benzoic acid], the IC50 is 0.029 µM at Pig sEH, 0.006 µM at Sheep sEH and 0.016 µM on Rat sEH.
